The values that follow come from PubChem BioAssay AID1626 (SRMLSC, 2009).

The subject of this assay is M. tuberculosis H37Rv growth inhibition. The assay is described as follows: M. tuberculosis H37Rv growth inhibitors, H37Rv strain (AID 1626). The following applies: for IC90: measured here: IC90 against H37Rv; for CC50: measured here: Vero cell cytotoxicity.

By IC50 is commonly meant the midpoint of a concentration-inhibition curve. As usually defined, the IC90 is the point of the concentration-response curve where the effect stands at 90%. Read a high IC90 as weaker potency. Usually CC50 stands for the concentration at which the toxic effect on the cells reaches its halfway point. Higher therefore signals better tolerance by the cells.

Take `CCCSc1cc(N2CCN(C)CC2)nc(-c2ccc(OC)cc2)n1`: the IC50 is 10.9 µM, the IC90 turned out to be 12.2 µM and the CC50 was more than 40 µM.

For `Clc1ccc(CNc2nc(CN3CCOCC3)nc3scc(-c4ccccc4)c23)cc1`, the IC50 is 22 µM, the IC90 was determined as 25 µM and the CC50 is more than 40 µM.

The compound `COc1ccc(-c2cc(C(F)(F)F)n3ncc(C(=O)N4CCCCC4c4cccnc4)c3n2)cc1` (stereo not drawn) came in with an IC90 of more than 100 µM.

Regarding `CN1CCN(c2ccccc2NC(=O)c2cc3c(s2)-c2ccccc2OC3)CC1`, the IC50 is 8.62 µM, the IC90 came to 17.7 µM and the CC50 is 10.7 µM.

Consider `CN(C)c1ccc(N=Nc2ccccc2C(=O)OCC(=O)NCC2CCCCC2)cc1`, for which the IC50 is 7.74 µM and the IC90 worked out at 17.2 µM.

Consider `CCc1ccc(C2c3[nH]c4ccccc4c3CCN2C(=O)c2cc(C)nn2C)cc1` (stereo not drawn), for which the IC50 was 22.2 µM, the IC90 came out at 31.9 µM and the CC50 was more than 40 µM.

For `COc1cccc(C(=O)/C=C/c2ccc(N3CCCCC3)c([N+](=O)[O-])c2)c1`, the IC50 was 29.4 µM, the IC90 is more than 100 µM and the CC50 was determined as 27.2 µM.

For `COc1ccc(N/C=C2\CCOC2=O)cc1`, the IC90 is more than 100 µM.

In the case of `O=C(Nc1ccc(N2CCN(C(=O)c3ccco3)CC2)cc1)C(c1ccccc1)c1ccccc1`, the IC50 was 12 µM, the IC90 was 14.1 µM and the CC50 was more than 40 µM.

In turn, `Cc1nn2c(NCc3ccccn3)cc(C(C)C)nc2c1-c1ccccc1` gave a CC50 of more than 40 µM.

`Nc1nc(-c2ccc(F)cc2)cs1`: the IC50 was 23.8 µM and the IC90 is more than 100 µM.

On to `O=C(Nc1ccc(-n2cccc2)cc1)C1CC1`, for which the IC50 was less than 0.195 µM and the IC90 was more than 100 µM.

For the compound `N=C1SC(c2ccccc2)C(=O)N1c1ncc(Cc2ccccc2)s1` (stereo not drawn), the IC50 is 26 µM, the IC90 was more than 100 µM and the CC50 stood at 34.9 µM.

`C=CCSc1nnc(-c2ccc([N+](=O)[O-])cc2)o1`: the IC50 is less than 0.195 µM and the IC90 is 0.843 µM.

With `Cc1ccc(S/C=C\C(=O)c2ccccc2)cc1`, the IC50 was 5.51 µM and the IC90 stood at 8.53 µM.

As for `CCCCc1nc2sc3c(SCCN(C)C)ncnc3c2c2c1CCC2`, the IC50 was 12.8 µM, the IC90 was found to be 25.4 µM and the CC50 was more than 40 µM.

Take `CCOC(=O)CSc1nnc(-c2cccc(Br)c2)o1`: the half-maximal inhibitory concentration (IC50) is 0.486 µM and the IC90 amounted to 15.2 µM.

Consider `O=C(CSc1nnc(-c2ccccc2Br)o1)N1CCc2ccccc2C1`, for which the IC50 is 2.32 µM and the IC90 worked out at 3.38 µM.

`COc1cc(/C=C2\COC/C(=C\c3ccc(O)c(OC)c3)C2=O)ccc1O`: the half-inhibitory concentration (IC50) was 5.7 µM, the IC90 turned out to be 10.8 µM and the CC50 worked out at 21.8 µM.

Turning to `Cc1cccc(OCCCCc2c(C)n[nH]c2C)c1`, the IC50 was 10.9 µM, the IC90 amounted to 15.5 µM and the CC50 was more than 40 µM.

With `Cc1ccccc1Nc1c(-c2ccccn2)nc2c(C)cccn12`, the IC50 is 20.5 µM, the IC90 is more than 100 µM and the CC50 is 29 µM.

Turning to `COc1ccc(COCC(O)CN2CCC(CN3C(=O)c4cccc5cccc(c45)C3=O)CC2)cc1OC` (stereo not drawn), the IC50 is 12.9 µM, the IC90 was more than 100 µM and the CC50 is more than 40 µM.

As to `O=C(Nc1ccc2c(c1)OCCO2)c1cccc2nc3ccccc3nc12`, the IC50 was less than 0.195 µM, the IC90 was found to be 2.17 µM and the CC50 was more than 40 µM.

Consider `Cc1c(C(=O)Oc2cccc3cccnc23)cccc1[N+](=O)[O-]`, for which the IC50 was 6.52 µM, the IC90 is 7.5 µM and the CC50 is more than 40 µM.

As to `c1ccc(-c2nnc(SCc3nnc(-c4cccs4)o3)o2)cc1`, the IC50 was 6.34 µM and the IC90 was 11.6 µM.

For `CCCn1c(NC(=O)c2ccco2)nc2ccccc21`, the IC50 was 5.87 µM, the IC90 is 18.6 µM and the CC50 is more than 40 µM.

For the compound `Cc1cc(Oc2ccc(Cl)cc2)nc(-c2ccccn2)n1`, the IC50 is 14.5 µM, the IC90 is more than 100 µM and the CC50 was 21.1 µM.

Turning to `Clc1ccc2c(c1)C1=C(C(c3ccncc3)O2)C(c2ccc(Br)cc2)n2ncnc2N1` (stereo not drawn), the IC50 was 2.91 µM, the IC90 came out at 3.29 µM and the CC50 was more than 40 µM.

On to `COc1ccc(C2(O)CC3CCC(C2)N3c2cc(C)nc(-c3ccccc3)n2)cc1` (stereo not drawn), for which the IC50 is 17.5 µM, the IC90 was determined as 23.9 µM and the 50% cytotoxic concentration (CC50) was more than 40 µM.

For the compound `O=C(Nc1nnc(-c2ccccn2)o1)c1cccc(Cl)c1`, the IC50 was 5.25 µM, the IC90 was more than 100 µM and the CC50 was more than 40 µM.

With `Cc1nn(-c2ccccc2)c(C)c1C(=O)Nc1nnc(-c2ccco2)o1`, the IC50 is 13.5 µM, the IC90 was more than 100 µM and the CC50 amounted to 38.5 µM.

Take `CCOC(=O)C1=Nc2ccccc2C1=[N+]=[N-]`: the IC50 is 0.906 µM, the IC90 was 1.23 µM and the CC50 stood at 36.7 µM.

Turning to `CCCOC(=O)c1ccc(NC(=O)/C=C/c2cccs2)cc1`, the IC50 was 4.12 µM and the IC90 came to 21.8 µM.

As for `CC(C)c1nnc(NC(=O)c2c(O)c3cccc4c3n(c2=O)CCC4)s1`, the IC50 is 0.604 µM, the IC90 was 0.731 µM and the CC50 is 6.5 µM.

Take `Cc1nn(-c2ccc([N+](=O)[O-])cc2)c2c1C(c1ccc(OC(F)F)cc1)N1C(=N2)C(=O)Nc2ccccc21` (stereo not drawn): the IC50 was 4.66 µM, the IC90 was more than 100 µM and the CC50 was more than 40 µM.

For the compound `CCOC(=O)c1ccc(NC(=O)CN2C(=O)C(=O)N(CC(C)C)C2=O)cc1`, the IC50 was less than 0.195 µM and the 90% effect concentration (IC90) was more than 100 µM.

As to `COc1ccc(N2C(=O)C(F)(F)C2c2ccccc2F)cc1` (stereo not drawn), the IC50 is 5.79 µM and the IC90 came out at 12.1 µM.

For the compound `CCOCCOC(=O)COc1ccc2c(-c3ccccc3)cc(=O)oc2c1`, the IC50 is 1.28 µM and the IC90 was 4.32 µM.

For the compound `O=C(NCc1cn(-c2ccccc2)nc1-c1ccccc1)c1cc([N+](=O)[O-])cc([N+](=O)[O-])c1`, the IC50 is 0.591 µM, the IC90 was found to be 0.847 µM and the CC50 was more than 40 µM.

Turning to `Cc1cc(OCc2nnc(SCC(=O)OC3CCCCC3)o2)ccc1Cl`, the IC50 is 0.372 µM and the IC90 turned out to be 2.57 µM.

As to `COc1ccc(NS(=O)(=O)c2ccc3nc(COc4cccc5ccccc45)[nH]c3c2)cc1`, the IC50 was 9.84 µM, the IC90 turned out to be 15 µM and the CC50 came to 29.6 µM.

As to `CCCCc1ccc(NC(=O)C(C)CC)cc1` (stereo not drawn), the IC50 is 6.21 µM and the IC90 was more than 100 µM.

With `Oc1c(Cl)cc(Cl)c2cccnc12`, the IC50 is 0.779 µM, the IC90 was 0.858 µM and the CC50 was 11.9 µM.

For the compound `O=[N+]([O-])c1cc(CN2CCCC2)ccc1Sc1ccc(Cl)cc1`, the IC50 was 29.8 µM, the IC90 is more than 100 µM and the CC50 was more than 40 µM.

With `O=S(=O)(Nc1ccn(-c2ccccc2)n1)c1ccc(Br)cc1`, the IC50 was 30.1 µM and the IC90 is more than 100 µM.

On to `CCCCCCCCCn1c2c(c(=N)c3c1CCC3)CCCC2`, for which the IC50 is 4.41 µM, the IC90 is 5.68 µM and the CC50 was 7.25 µM.

Consider `CC(C)N1C(=O)NC(=O)C2(Cc3cc([N+](=O)[O-])ccc3N(C)C2c2ccccc2)C1=O` (stereo not drawn), for which the IC50 was 17.8 µM, the IC90 was 52.1 µM and the CC50 is more than 40 µM.

As to `Cc1cc(Cl)ccc1OCCCC(=O)NO`, the IC50 is 28.6 µM, the IC90 was more than 100 µM and the 50% cytotoxic concentration (CC50) came out at 35.7 µM.

The compound `COc1ccc(C(C[N+](=O)[O-])n2nc(C)cc2C)cc1` (stereo not drawn) showed a CC50 of more than 40 µM.

The compound `Nc1nc2c(s1)COc1ccccc1-2` returned an IC90 of more than 100 µM.

As for `COc1ccc(C[C@H]2CN3C(=NC[C@@H]3Cc3ccc(O)cc3)N2C[C@H](C)NC(=O)c2ccc(C)c(Br)c2)cc1`, the IC50 is 6.33 µM and the concentration for an effect of 90% (IC90) worked out at 9.21 µM.

Turning to `N#CC1=C(N)NC(SCC(=O)c2ccccc2)=C(C#N)C12CCCC2`, the IC50 was 7.73 µM and the IC90 was more than 100 µM.

Consider `COc1cc(CNCCc2c[nH]c3ccccc23)ccc1OCc1ccccc1F`, for which the half-maximal inhibitory concentration (IC50) was 14 µM, the IC90 stood at 21.3 µM and the CC50 was 15.1 µM.

On to `CCSc1nnc(NC(=O)c2ccccn2)s1`, for which the IC50 was 0.315 µM, the IC90 was determined as 0.466 µM and the CC50 was 8.14 µM.

In the case of `O=C(Nc1ccc(N2CCN(C(=O)c3ccc(Cl)cc3)CC2)cc1)c1ccc([N+](=O)[O-])o1`, the IC50 is less than 0.195 µM, the IC90 is less than 0.195 µM and the CC50 amounted to 0.417 µM.

Turning to `Cc1ccc2nc(-c3ccccn3)c(Nc3ccccc3C)n2c1`, the IC50 is 1.52 µM, the IC90 amounted to 2.24 µM and the CC50 was determined as 3.42 µM.

Compound `O=C(OCC(=O)N1CCN(C(=O)c2ccco2)CC1)c1sc2ccccc2c1Cl` had an IC90 of more than 100 µM.

As to `C#CCOCCOCCOCCNc1nc(N2CCN(C(=O)[C@H](Cc3ccc(O)cc3)n3cc([C@@H](N)CC(C)C)nn3)CC2)nc(N2CCN(C(=O)[C@H](Cc3cc4ccccc4[nH]3)n3cc([C@@H](N)CC(C)C)nn3)CC2)n1`, the IC50 is 11.7 µM and the IC90 came to 16.7 µM.

Regarding `Cc1ccc2c(c1)Cc1nc3ccccc3nc1-2`, the IC50 was 83.5 µM, the IC90 is more than 100 µM and the CC50 is more than 40 µM.

Regarding `Cc1ccc2nc(-c3cccc(N)c3)oc2c1`, the IC50 was 12.7 µM, the IC90 is more than 100 µM and the CC50 is more than 40 µM.

In turn, `CCOC(=O)c1ccc(NC(=O)C2C3CCC(C3)C2C(=O)O)cc1` (stereo not drawn) gave an IC90 of more than 100 µM.

As to `CCOC(=O)/C=C/C(=O)Nc1ccc(Oc2ccccc2)cc1`, the half-inhibitory concentration (IC50) was 1.2 µM, the IC90 was more than 100 µM and the CC50 is more than 40 µM.

Regarding `CCOC(=O)c1cc(-c2csc(COc3ccc(Cl)cc3)n2)on1`, the IC50 was less than 0.195 µM and the IC90 was found to be 2.41 µM.

Take `O=c1c(C=Nc2ccc(Oc3ccccc3)cc2)c[nH]n1-c1cccc(Cl)n1`: the IC90 is more than 100 µM and the CC50 is more than 40 µM.
